{"source": "paper PMC3493512", "about": "“Structures of SHV-1 β-Lactamase with Penem and Penam Sulfone Inhibitors That Form Cyclic Intermediates Stabilized by Carbonyl Conjugation” (PLoS ONE, 2012)", "biological_target": "T1, SHV-1 β-lactamase (Klebsiella pneumoniae, UniProt P0AD64)", "T1 construct": "gene bla", "T1 sequence (P0AD64 22-286)": "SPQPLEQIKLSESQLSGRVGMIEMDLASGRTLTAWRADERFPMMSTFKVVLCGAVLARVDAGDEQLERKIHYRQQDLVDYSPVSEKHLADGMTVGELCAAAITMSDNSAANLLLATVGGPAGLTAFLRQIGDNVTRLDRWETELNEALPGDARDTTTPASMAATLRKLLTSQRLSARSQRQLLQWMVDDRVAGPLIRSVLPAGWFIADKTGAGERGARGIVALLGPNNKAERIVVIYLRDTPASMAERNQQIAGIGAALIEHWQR", "assay": "X-ray crystal structure at […] Å (soak); Ki by direct competition kinetics", "format": "biochemical", "data": [{"smiles": "C[C@]1(COC(=O)Cc2ccccc2)[C@H](C(=O)O)N2C(=O)/C(=C/c3ccccn3)[C@H]2S1(=O)=O", "note": "[SA1-204]", "values": [{"measurement": "Ki", "value": "42 ± 4", "unit": "nM"}]}]}
